Test results reported in article doi:10.1101/2022.02.04.479134, “A Suite of TMPRSS2 Assays for Screening Drug Repurposing Candidates as Potential Treatments of COVID-19” (bioRxiv, 2022).
Entries after “also recorded” stand apart in the source; their conditions may differ. Counter-ions that a name gives are not always drawn. Like-named read-outs stand apart in the source and are kept apart here.

Columns and labels:
[1] = Fluorescence counterassay (AMC quenching); conditions: 1 μM AMC; for Biochemical (fluorogenic counterassay) Max Response: 0% = 1 μM AMC, −100% = 0.1 μM AMC, <0% = quenching
Procedure: Assay buffer (50 mM Tris pH 8, 150 mM NaCl, 0.01% Tween20) was added to the full plate to give a total reaction volume of 5 μL. Detection was done using the PHERAstar with 340 nm excitation and 440 nm emission. Fluorescence was normalized relative to a negative control containing 7-amino-4-methylcoumarin at 0.1 μM (−100% activity, low fluorescence) and a positive control containing 7-amino-4-methylcoumarin at 1 μM (0% activity, high fluorescence).

[2] = test system: Calu-3 cells; conditions: for AC50: read-out: Calu-3 (cytotoxicity) AC50, N/D = Not Detected
[3] = target: T1, Recombinant Human TMPRSS2 (Homo sapiens, UniProt O15393); assay: biochemical; format: biochemical; conditions: for AC50: 10 μM Boc-QAR-AMC, 0.175 μM TMPRSS2, 1 h RT, 11-point dose-response in triplicate, read-out: Biochemical (fluorogenic) AC50
Procedure: Buffer conditions were tested and optimized to include: 50 mM Tris pH 8, 150 mM NaCl and 0.01% Tween20.
Following 1 h of incubation at RT, detection was done using the PHERAstar with 340 nm excitation and 440 nm emission (Table 1).
To determine compound activity in the assay, the concentration–response data for each sample was plotted and modeled by a four-parameter logistic fit yielding IC50 and maximal response values. […] Data normalization, visualization, and curve fitting were performed using Prism (GraphPad, San Diego, CA).

[4] = target: T1, Recombinant Human TMPRSS2; assay: biochemical; format: biochemical; conditions: for AC50: 10 μM peptide, 0.4 μM TMPRSS2, 1 h RT, N/D = Not Detected, read-out: Biochemical (mass spectrometry) AC50; for IC50: biochemical assay not given, matches mass spectrometry values, read-out: IC50 inhibition of TMPRSS2
[5] = in vitro; conditions: human
[6] = target: recombinant TMPRSS2; conditions: fluorogenic peptide substrate; cited from earlier work
[7] = test system: H1N1 and H3N2 influenza virus strains; conditions: Calu-3 cells; cited from earlier work
[8] = test system: Calu-3 cells; conditions: cited from earlier work

T1 sequence (O15393 106-492): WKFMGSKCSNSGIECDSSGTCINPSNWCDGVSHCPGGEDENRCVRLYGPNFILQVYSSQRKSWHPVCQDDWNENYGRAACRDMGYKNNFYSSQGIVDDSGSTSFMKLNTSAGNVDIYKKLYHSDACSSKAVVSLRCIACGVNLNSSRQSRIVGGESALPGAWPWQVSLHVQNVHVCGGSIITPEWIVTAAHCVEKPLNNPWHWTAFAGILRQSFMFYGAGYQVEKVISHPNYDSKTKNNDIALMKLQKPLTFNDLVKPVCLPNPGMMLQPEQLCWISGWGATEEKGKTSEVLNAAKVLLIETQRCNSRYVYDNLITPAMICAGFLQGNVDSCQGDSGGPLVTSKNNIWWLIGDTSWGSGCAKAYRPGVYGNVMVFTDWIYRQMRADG

| Compound | Biochemical (fluorogenic counterassay) Max Response [1] | Calu-3 (cytotoxicity) Max Response ([2]; ATP content, no PP) | AC50 [3] | AC50 [4] | also measured |
| --- | --- | --- | --- | --- | --- |
| NCCc1ccc(S(=O)(=O)F)cc1 [4-(2-aminoethyl)benzenesulfonyl fluoride] | 23% | 0% |  |  |  |
| O=c1ccc2ccc(O)cc2o1 [7-Hydroxycoumarin] | 1373% | 0% | 8.62 µM |  | inhibition of TMPRSS2 in the fluorogenic assay ([3]; at 40 μM): nearly full inhibition; inhibition of TMPRSS2 in the mass spectrometry detection assay ([4]; dose-response): no inhibition detected; also recorded: did not show inhibition |
| N=C(N)NC(=O)c1nc(Cl)c(N)nc1N [Amiloride HCl] | 26.6% | 0% | 8.29 µM | 9 µM |  |
| CC(C)C[C@H](NC(=O)[C@H](Cc1ccccc1)NC(=O)c1cnccn1)B(O)O [Bortezomib] | 4.6% | -97% | 11.4 µM | 9.77 µM | cytotoxicity towards Calu-3 cells ([2]; cytotoxicity counter-assay): high cytotoxicity; AC50 [5]: 0.29 µM |
| CN(C)C(=O)COC(=O)Cc1ccc(OC(=O)c2ccc(NC(=N)N)cc2)cc1 [Camostat] | -5% | 0% |  |  |  |
| NC[C@H]1CC[C@H](C(=O)Oc2ccc(CCC(=O)O)cc2)CC1 [Cetraxate HCl] | 2.7% | 0% | 2.34 µM | 5.52 µM |  |
| N=C(N)c1cccc(CC(NS(=O)(=O)c2cccc(-c3ccc(Cl)cc3Cl)c2)C(=O)N2CCC(CCN)CC2)c1 (stereo not shown) [Cmpd 92 (Meyer)] | -5.6% | 0% | 0.41 µM | 0.28 µM | IC50 [4]: ~0.3 µM; Ki [6]: 0.0009 µM; replication of H1N1 and H3N2 influenza virus strains [7]: significantly reduced; cytotoxicity within Calu-3 cells [8]: not cytotoxic |
| N=C(N)c1cccc(CC(NS(=O)(=O)c2cccc(-c3ccc(Cl)cc3Cl)c2)C(=O)N2CCC(NC(=O)NC3CCCCC3)CC2)c1 (stereo not shown) [Cmpd 114 (Meyer)] | -6.2% | 0% | 0.57 µM | 0.26 µM | IC50 [4]: ~0.3 µM; Ki [6]: 0.005 µM; cytotoxicity within Calu-3 cells [8]: not cytotoxic |
| CCOC(=O)c1cc(=O)c2c(OCC(COc3cccc4oc(C(=O)OCC)cc(=O)c34)OC(=O)[C@@H](N)CCCCN)cccc2o1 [Cromoglicate lisetil] | -1.4% | 0% | 16.5 µM | 25.1 µM |  |
| COC(=O)N[C@H](C(=O)N1CCC[C@H]1c1nc(-c2ccc(-c3ccc(-c4c[nH]c([C@@H]5CCCN5C(=O)[C@@H](NC(=O)OC)C(C)C)n4)cc3)cc2)c[nH]1)C(C)C [Daclatasvir dihydrochloride] | 447% | 0% | 13.3 µM |  |  |
| O=c1ccn([C@H]2C[C@H](O)[C@@H](CO)O2)c(=O)[nH]1 [Deoxyuridine] | 19.3% | 0% | 16 µM |  |  |
| CN(C(=O)C(Cl)Cl)c1ccc(OC(=O)c2ccco2)cc1 [Diloxanide furoate] | -3.2% | 0% | 11.1 µM | 21.7 µM |  |
| Nc1nc2ncc(CNc3ccc(C(=O)N[C@@H](CCC(=O)O)C(=O)O)cc3)nc2c(=O)[nH]1 [Folic Acid] | 14.5% | 0% | 13.3 µM |  |  |
| CCOC(=O)c1ccc(OC(=O)CCCCCNC(=N)N)cc1 [Gabexate mesilate] | 17.4% | 0% |  |  |  |
| CC(=O)N[C@@H](CC(C)C)C(=O)N[C@@H](CC(C)C)C(=O)N[C@H](C=O)CCCNC(=N)N [Leupeptin] | 0.5% | 0% | 1.58 µM | 0.72 µM |  |
| N=C(N)c1ccc2cc(OC(=O)c3ccc(N=C(N)N)cc3)ccc2c1 [Nafamostat mesilate] | -1.9% | 0% |  |  |  |
| COC(=O)[C@H](Cc1cccc(C(=N)N)c1)[C@@H](C)NC(=O)c1ccc(-c2cc[n+]([O-])cc2)cc1 [Otamixaban] | -1% | 0% |  |  |  |
| N=C(N)c1ccc2nc(-c3cc(CC(=O)N[C@@H](CC(=O)O)C(=O)O)cc(-c4cc(S(N)(=O)=O)ccc4O)c3O)[nH]c2c1 [PCI-27483] | 61.3% | 0% | 1.8 µM | 1.4 µM |  |
| N=C(N)c1ccc(OCCCCCOc2ccc(C(=N)N)cc2)cc1 [Pentamidine isethionate] | -0.05% |  | 9.49 µM | 7.6 µM | AC50 [5]: 18.6 µM |
| O=S(=O)(F)Cc1ccccc1 [Phenylmethanesulfonyl fluoride (PMSF), Phenylmethanesulfonyl fluoride] | -2.8% | 0% |  |  |  |
| COC[C@H]1C[C@@H](c2ncc(-c3ccc4c(c3)COc3cc5c(ccc6nc([C@@H]7CC[C@H](C)N7C(=O)[C@@H](NC(=O)OC)C(C)C)[nH]c65)cc3-4)[nH]2)N(C(=O)[C@H](NC(=O)OC)c2ccccc2)C1 [Velpatasvir] | 442% | 0% | 14.7 µM | 13.2 µM |  |
| AGN194310 | -9.2% | 0% | 7.9 µM |  |  |
| Dibromopropamidine Dihydrochloride | 87% | -85% | 4.4 µM | 4.34 µM | AC50 ([2]; ATP content, no PP): 25.1 µM |
| G-007-LK | 424% | 0% | 14.7 µM |  |  |
| Hydroxystilbamidine bis(methanesulfonate) | -6.4% |  | 3.03 µM | 2.31 µM | Calu-3 (cytotoxicity) Max Response [2]: 0% |
| Marizomib / Salinosporamide A | 2.2% | -98% | 14.7 µM | 22.9 µM | AC50 ([2]; ATP content, no PP): 0.1 µM |
| tannic acid |  |  |  |  | quenching of the AMC fluorescent signal [1]: ~ 30% |
